# Measured values published in patent US20260166068A1, “COMPOSITION FOR PROMOTING DEVELOPMENT OF BRAIN FUNCTIONS IN CHILDREN” (Meiji Co., Ltd., priority 2022, published 2026).
# “And” between values parts separate entries of the source, which are not always exact repeats. Equal values may be shown once.
# Columns and labels:
# [1] = tested on: brain function development of infants; test: Spearman correlation of NAD-related substance concentration in 1-month breast milk with ASQ-3 developmental scores at 24 months; format: in vivo, human; details: for Correlation with concentration, r (Spearman): ASQ-3 at 24 months, 1-month breast milk; for Correlation of concentration in breast milk with developmental scores (in words): p<0.05
# Procedure: (§1) The method was specifically as follows.
# Concentrations of NAD-related substances in 1-month breast milk ingested by 150 infants of 1 to 6 months old, who were fully breastfed, were determined by LC-MS/MS.
# Development of the infants was assessed at the age of 24 months using ASQ (registered trademark)-3 (Japanese version of ASQ (registered trademark)-3 infant developmental screening questionnaires, Igaku Shoin, 2021). The relationship between the amount of each NAD-related substance ingested by the infants and their development was evaluated by using Spearman's rank-order correlation coefficient.
# mice = details: cited from earlier work
# piglets = details: cited from earlier work
# old rats = details: each alone or in combination; cited from earlier work
# [2] = tested on: mouse model of drug-induced depression; details: cited from earlier work
# aged mice = details: cited from earlier work
# mouse = details: aging; cited from earlier work
# [3] = tested on: brain function development of infants; test: Between-group comparison (Mann-Whitney U) of ASQ-3 developmental scores, high NMN vs low NMN breast milk; format: in vivo, human
# Procedure: as §1
# By using the data on the contents of NMN in breast milk and the developmental scores of the infants shown in Method 1, the subject infants were divided into two groups according to the concentration of NMN in breast milk, and the groups were compared according to Mann-Whitney's U-test. In this study, the boundary concentration of the two groups was set to be 1.922 μg/mL (mean NMN concentration in 1-month breast milk−1×standard deviation) or 3.089 μg/mL (mean NMN concentration in 1-month breast milk). That is, the group comparison was performed between two groups of NMN concentrations in the consumed breast milk of […] (high NMN group) and <1.922 μg/mL (low NMN group), or two groups of the same of 3.089 μg/mL (high NMN group) and <3.089 μg/mL (low NMN group).
Structure (SMILES),"Correlation with concentration, r (Spearman) ([1]; Fine motor)","Correlation with concentration, r (Spearman) ([1]; Gross motor)","Correlation with concentration, r (Spearman) ([1]; Problem solving)","Correlation with concentration, r (Spearman) ([1]; Social-individual)","Correlation with concentration, r (Spearman) ([1]; Communication, 150 infants)",Learning and memory abilities (old rats),also measured
"NC(=O)c1ccc[n+]([C@@H]2O[C@H](COP(=O)([O-])OP(=O)(O)OC[C@H]3O[C@@H](n4cnc5c(N)ncnc54)[C@H](O)[C@@H]3O)[C@@H](O)[C@H]2O)c1 [NAD, nicotinamide adenine dinucleotide]",0.025,0.077,0.056,0.048,–,–,–
"NC(=O)c1ccc[n+]([C@@H]2O[C@H](CO)[C@@H](O)[C@H]2O)c1 [NR, nicotinamide riboside]",0.085,0.082,–,0.117,0.017,–,"BDNF level in breast milk (mice; NR supplementation of mothers): twice as high; Fat and brain size of offspring at weaning (mice; mice raised by supplemented mothers): lower fat and larger brains; Milk secretion and production of BDNF (mice; mouse, in vivo): stimulates milk secretion; Short-chain fatty acids in feces (piglets): increased levels; Correlation of concentration in breast milk with developmental scores (in words) ([1]; problem solving): positive correlation"
COc1ccc2[nH]cc(CCNC(C)=O)c2c1 [melatonin],–,–,–,–,–,improves their learning and memory abilities,–
"NC(=O)c1ccc[n+]([C@@H]2O[C@H](COP(=O)([O-])O)[C@@H](O)[C@H]2O)c1 [NMN, nicotinamide mononucleotide]",0.208,0.186,0.288,0.269 and 0.259,0.199,improves their learning and memory abilities,"Drug-induced depression-like symptoms [2]: improves drug-induced depression-like symptoms; Neurovascular coupling (aged mice): may promote neurovascular coupling; Hypersensitive behaviors to fear and anxiety (mouse): may alleviate hypersensitive behaviors to fear and anxiety; Correlation of concentration in breast milk with developmental scores (in words) ([1]; all five developmental areas at 24 months): significant positive correlation; Effectiveness in promoting brain development in infants among the NAD-related substances ([1]; in vivo): most effective; Correlation between amount in breast milk ingested from 1 to 6 months of age and development by ASQ-3 24-month (in words) ([1]; overall): high correlation; Development of the infants, high NMN group vs low NMN group ([3]; fine motor, boundary value 3.089 μg/mL, FIG. 2): significantly accelerated; NMN level in the composition at which infants' brain functions are significantly enhanced ([3]; in vivo): ≥ 1.922 µg/mL; Development of the infants, high NMN group vs low NMN group ([3]; personal-social, boundary value 1.922 μg/mL, FIG. 1): significantly accelerated; Development of the infants, high NMN group vs low NMN group ([3]; personal-social, boundary value 3.089 μg/mL, FIG. 2): significantly accelerated; Development of the infants, high NMN group vs low NMN group ([3]; problem solving, boundary value 3.089 μg/mL, FIG. 2): significantly accelerated"
"O=C(O)c1cccnc1 [NA, nicotinic acid]",–,0.095,0.147,0.154,0.025,–,Correlation of concentration in breast milk with developmental scores (in words) ([1]; gross motor): positive correlation
